Test system: adult patients with uncontrolled gout
Experiment: Serum uric acid (sUA) levels and sUA responder rate, open-label study of pegloticase with MTX (MIRROR OL)
Format: in vivo, human
Conditions: Month 6 sUA Responders
Protocol: The primary objective is to estimate the response rate during Month 6 (Weeks 20, 22, and 24), as measured by the sustained normalization of serum uric acid (SUA) to <6 mg/dL for at least 80% of the time during Month 6 in subjects receiving KXX with MTX.
The primary efficacy outcome endpoint is the sustained normalization of SUA to <6 mg/dL for at least 80% of the time during month 6 (weeks 20, 22, and 24) in subjects receiving KXX with MTX. […] Participants who achieve this endpoint were classified as “responders.” Serum uric acid (SUA) responders may also be defined as participants achieving and maintaining SUA <6 mg/dL for at least 80% of the time during Month 6 (Weeks 20, 22, and 24).
Blood samples may be collected prior to each pegloticase infusion for measurement of SUA levels using the Beckman Coulter AU System Uric Acid procedure. Participants were declared “non-responders” if there were SUA measures >6 mg/dL at 2 consecutive study visits beginning with the week 2 visit. […] This assumption and subsequent discontinuation of pegloticase was consistent with the protocol of large phase III randomized controlled trials and the product label. A formal stopping rule was 2 occasions of SUA levels of greater than 6 mg/dL.
Clinical Chemistry—Blood samples were collected prior to each pegloticase infusion for measurement of SUA levels (primary efficacy parameter) using the Beckman Coulter AU System Uric Acid procedure. In this procedure uric acid is converted to hydrogen peroxide. Hydrogen peroxide reacts with reagent to produce a chromophore which is read bichromatically at 660/800 nm. The amount of dye formed is proportional to the uric acid concentration in the sample.
Serum samples for measurement of SUA levels were collected at the Screening Visit, the Week −4 Visit (prior to the first dose of MTX), and the Week −2 Visit during the MTX Run-in Period; within 48 hours prior to each pegloticase infusion and after the end of each pegloticase infusion prior to discharge from the site during the Pegloticase+IMM Period; at the non-infusion Week 52/End of Study/Early Termination Visits and at the Post Treatment 3 and 6 Month Follow-up Visits. Additional serum samples for SUA levels were collected at optional non-infusion (Frequent Sampling) Visits at Weeks 1 and 7. […] Subjects with SUA level >6 mg/dL at 2 consecutive visits beginning at Week 2 visit discontinued treatment, completed the End of Pegloticase Infusion Visit procedures within 2 weeks and continued the subject visits according to the protocol (without treatment).
Efficacy analyses were performed using the modified intention-to-treat (mITT) population, defined as all enrolled subjects who received ≥1 dose of pegloticase. The proportion of Month 6 responders was summarized, along with a 95% confidence interval for the proportion. The proportion of Month 3 and overall (Months 3 and 6 combined) responders was analyzed similarly.
A subject was declared a non-responder if the subject had SUA level >6 mg/dL at 2 consecutive study visits beginning with the Week 2 Visit. In addition, a subject who withdraws from study treatment for any reason after the first dose of pegloticase in the KXX+MTX Period and prior to Month 6 (for the primary endpoint) or Month 3 (for the secondary endpoint) was considered a non-responder if SUA values were not collected at the planned time points.
Patients were administered oral MTX (15 mg/week) and folate (1 mg/day) 4 weeks prior to the first pegloticase infusion (Day 1) and throughout the pegloticase treatment period. Blood was drawn prior to each infusion to measure sUA level, monitor clinical parameters, and examine for ADA development. All patients followed typical IR prophylaxis protocols (fexofenadine one day before and the morning of each infusion and acetaminophen and IV corticosteroid the morning of each infusion).

[1] = End of Pegloticase Infusions Visit, n=2

In the case of pegloticase, the “Serum Uric Acid, Observed, Median” value (Day 1-Post-Infusion, n=8) is reported as 0.30 mg/dL, the “sUA <6 mg/dL, n (%)” value (Day 1-Post-Infusion, n=8) is reported as 8 (100%) and the “Serum Uric Acid, Change from Baseline, Mean (SD)” value (from here on “Serum Uric Acid, Change … (SD)”) [1] is reported as −8.50 (1.556) mg/dL. The “Serum Uric Acid, Change from Baseline, Median” value [1] was -8.50 mg/dL, the “Serum Uric Acid, Observed, Mean (SD)” value [1] was 0.30 (0.000) mg/dL and the “Serum Uric Acid, Observed, Median” value [1] was 0.30 mg/dL. The “sUA <6 mg/dL, n (%)” value [1] was 2 (100%), the “Serum Uric Acid, Change … (SD)” value (Week 1, n=4) was −6.88 (1.836) mg/dL and the “Serum Uric Acid, Change from Baseline, Median” value (Week 1, n=4) was -7.15 mg/dL. For the same substance, the “Serum Uric Acid, Observed, Mean (SD)” value (Week 1, n=4) was 0.30 (0.000) mg/dL, the “Serum Uric Acid, Observed, Median” value (Week 1, n=4) was 0.30 mg/dL and the “sUA <6 mg/dL, n (%)” value (Week 1, n=4) was 4 (100%). For the same substance, the “Serum Uric Acid, Change … (SD)” value (Week 2-Post-Infusion, n=11) was −8.97 (2.810) mg/dL, the “Serum Uric Acid, Change from Baseline, Median” value (Week 2-Post-Infusion, n=11) was -8.80 mg/dL and the “Serum Uric Acid, Observed, Mean (SD)” value (Week 2-Post-Infusion, n=11) was 0.30 (0.000) mg/dL. The “Serum Uric Acid, Observed, Median” value (Week 2-Post-Infusion, n=11) was 0.30 mg/dL, the “sUA <6 mg/dL, n (%)” value (Week 2-Post-Infusion, n=11) was 11 (100%) and the “Serum Uric Acid, Change … (SD)” value (Week 2-Pre-Infusion, n=11) was −8.64 (2.086) mg/dL. The “Serum Uric Acid, Change from Baseline, Median” value (Week 2-Pre-Infusion, n=11) was -8.80 mg/dL, the “Serum Uric Acid, Observed, Mean (SD)” value (Week 2-Pre-Infusion, n=11) was 0.63 (1.096) mg/dL and the “Serum Uric Acid, Observed, Median” value (Week 2-Pre-Infusion, n=11) was 0.30 mg/dL. The “sUA <6 mg/dL, n (%)” value (Week 2-Pre-Infusion, n=11) was 11 (100%), the “Serum Uric Acid, Change … (SD)” value (Week 4-Post-Infusion, n=11) was −8.97 (2.810) mg/dL and the “Serum Uric Acid, Observed, Mean (SD)” value (Week 4-Post-Infusion, n=11) was 0.30 (0.000) mg/dL. The “Serum Uric Acid, Change … (SD)” value (Week 4-Pre-Infusion, n=11) was −8.59 (2.884) mg/dL, the “Serum Uric Acid, Change from Baseline, Median” value (Week 4-Pre-Infusion, n=11) was -8.60 mg/dL and the “Serum Uric Acid, Observed, Mean (SD)” value (Week 4-Pre-Infusion, n=11) was 0.68 (1.043) mg/dL. The “Serum Uric Acid, Observed, Median” value (Week 4-Pre-Infusion, n=11) was 0.30 mg/dL, the “sUA <6 mg/dL, n (%)” value (Week 4-Pre-Infusion, n=11) was 11 (100%) and the “sUA <6 mg/dL, n (%)” value (Week 7, n=4) was 4 (100%). For the same substance, the “Serum Uric Acid, Change … (SD)” value (Week 8-Post-Infusion, n=11) was −8.97 (2.810) mg/dL, the “Serum Uric Acid, Change from Baseline, Median” value (Week 8-Post-Infusion, n=11) was -8.80 mg/dL and the “Serum Uric Acid, Observed, Mean (SD)” value (Week 8-Post-Infusion, n=11) was 0.30 (0.000) mg/dL. The “Serum Uric Acid, Observed, Median” value (Week 8-Post-Infusion, n=11) was 0.30 mg/dL, the “sUA <6 mg/dL, n (%)” value (Week 8-Post-Infusion, n=11) was 11 (100%) and the “Serum Uric Acid, Change … (SD)” value (Week 8-Pre-Infusion, n=11) was −8.91 (2.824) mg/dL. For the same substance, the “Serum Uric Acid, Change from Baseline, Median” value (Week 8-Pre-Infusion, n=11) was -8.60 mg/dL, the “Serum Uric Acid, Observed, Mean (SD)” value (Week 8-Pre-Infusion, n=11) was 0.37 (0.224) mg/dL and the “Serum Uric Acid, Observed, Median” value (Week 8-Pre-Infusion, n=11) was 0.30 mg/dL. The “sUA <6 mg/dL, n (%)” value (Week 8-Pre-Infusion, n=11) was 11 (100%), the “Serum Uric Acid, Change … (SD)” value (Week 10-Post-Infusion, n=11) was −8.97 (2.810) mg/dL and the “Serum Uric Acid, Change from Baseline, Median” value (Week 10-Post-Infusion, n=11) was -8.80 mg/dL. For the same substance, the “Serum Uric Acid, Observed, Mean (SD)” value (Week 10-Post-Infusion, n=11) was 0.30 (0.000) mg/dL, the “Serum Uric Acid, Observed, Median” value (Week 10-Post-Infusion, n=11) was 0.30 mg/dL and the “sUA <6 mg/dL, n (%)” value (Week 10-Post-Infusion, n=11) was 11 (100%). The “Serum Uric Acid, Change … (SD)” value (Week 10-Pre-Infusion, n=11) was −8.97 (2.810) mg/dL, the “Serum Uric Acid, Change from Baseline, Median” value (Week 10-Pre-Infusion, n=11) was -8.80 mg/dL and the “Serum Uric Acid, Observed, Mean (SD)” value (Week 10-Pre-Infusion, n=11) was 0.30 (0.000) mg/dL. The “Serum Uric Acid, Observed, Median” value (Week 10-Pre-Infusion, n=11) was 0.30 mg/dL, the “sUA <6 mg/dL, n (%)” value (Week 10-Pre-Infusion, n=11) was 11 (100%) and the “Serum Uric Acid, Change … (SD)” value (Week 12-Post-Infusion, n=10) was −9.13 (2.911) mg/dL. For the same substance, the “Serum Uric Acid, Change from Baseline, Median” value (Week 12-Post-Infusion, n=10) was -9.05 mg/dL, the “Serum Uric Acid, Observed, Mean (SD)” value (Week 12-Post-Infusion, n=10) was 0.30 (0.000) mg/dL and the “Serum Uric Acid, Observed, Median” value (Week 12-Post-Infusion, n=10) was 0.30 mg/dL. The “sUA <6 mg/dL, n (%)” value (Week 12-Post-Infusion, n=10) was 10 (100%), the “Serum Uric Acid, Change … (SD)” value (Week 12-Pre-Infusion, n=11) was −8.98 (2.806) mg/dL and the “Serum Uric Acid, Change from Baseline, Median” value (Week 12-Pre-Infusion, n=11) was -8.80 mg/dL. The “Serum Uric Acid, Observed, Mean (SD)” value (Week 12-Pre-Infusion, n=11) was 0.30 (0.015) mg/dL, the “Serum Uric Acid, Observed, Median” value (Week 12-Pre-Infusion, n=11) was 0.30 mg/dL and the “sUA <6 mg/dL, n (%)” value (Week 12-Pre-Infusion, n=11) was 11 (100%). The “Serum Uric Acid, Change … (SD)” value (Week 14-Post-Infusion, n=10) was −9.01 (2.959) mg/dL, the “Serum Uric Acid, Change from Baseline, Median” value (Week 14-Post-Infusion, n=10) was -9.05 mg/dL and the “Serum Uric Acid, Observed, Mean (SD)” value (Week 14-Post-Infusion, n=10) was 0.30 (0.000) mg/dL.

— US20220409620A1, “REDUCING IMMUNOGENICITY TO PEGLOTICASE” (Horizon Pharma Rheumatology LLC, priority 2016, published 2022)
